US20220304998A1, “REBAMIPIDE FOR USE IN PREVENTION AND TREATMENT OF CROHN'S DISEASE” (SQUARE POWER LTD., priority 2019, published 2022)

How the values were obtained:
[1] = tested on: patients suffering from Crohn's disease; experiment: Clinical course, response and tolerability in Crohn's disease patient case reports; type: in vivo, human; conditions: for adverse reaction: affecting skin and joints
Text: (§1) Several patients suffering from Crohn's disease for at least 5 years without sufficient response to standard treatment were given rebamipide tablets three times a day. […] The severity of the disease was quantified by the CDAI, and the level of inflammation by fecal calprotectin.

[2] = tested on: patients suffering from Crohn's disease; experiment: Crohn's Disease Activity Index (CDAI) in Crohn's disease patients given rebamipide tablets; type: in vivo, human
Text: as §1
Crohn's Disease Activity Index (CDAI) is a research tool used to quantify the symptoms of patients with Crohn's disease. It consists of eight factors, each summed after adjustment with a weighting factor. Remission of Crohn's disease is defined as CDAI below 150, whereas severe disease is defined as a value of greater than 450.

[3] = oral administration; cited from earlier work
Calprotectin (FC) = experiment: Fecal calprotectin in stool samples by ELISA kit (EK-CAL, Bühlmann); type: in vivo, human; conditions: for fecal calprotectin level: Example 1; for calprotectin: Example 2
Text: as §1
Calprotectin (FC) is a small calcium-binding protein that is used as a biomarker for inflammatory bowel diseases since its fecal concentration correlates well with the disease severity. Calprotectin values lower than 200 μg/g feces are considered the normal level. It was measured in stool samples using commercially available enzyme-linked immunosorbent assay (ELISA) kit (EK-CAL, Bühlmann).

[4] = summary of patient sample, add-on to corticosteroid

Molecule: CCCC1O[C@@H]2C[C@H]3[C@@H]4CCC5=CC(=O)C=C[C@]5(C)[C@H]4[C@@H](O)C[C@]3(C)[C@]2(C(=O)CO)O1 (stereo partly shown) [budesonide]
- duration of maintained remission ([1]; Example 3, therapy with budesonide and mesalazine): about 10 years

Molecule: O=C(NC(Cc1cc(=O)[nH]c2ccccc12)C(=O)O)c1ccc(Cl)cc1 (stereo not shown) [rebamipide, 2-[(4-chlorobenzoyl)amino]-3-(2-oxo-1H-quinolin-4-yl)propanoic acid]
- CDAI ([2]; Example 1, person, Crohn's ileocolitis, rebamipide 100 mg three times daily with methylprednisolon 24 mg/day, after 6 weeks, relapse value 358): 181 points
- CDAI ([2]; Example 1, after another 6 weeks, corticosteroid dose reduced to half, rebamipide 100 mg three times daily): 73 points
- CDAI ([2]; Example 2, person, Crohn's ileocolitis, rebamipide 200 mg t.i.d. add-on to prednisone 40 mg/day, after 6 weeks, relapse value 479): 225 points
- CDAI ([2]; Example 2, after another 6 weeks, rebamipide 100 mg t.i.d., prednisone tapered from 30 mg/day by 10 mg every 2 weeks): 84 points
- CDAI ([2]; Example 3, person, Crohn's ileitis, rebamipide 100 mg three times daily with prednisone 50 mg/day, 25 mg after 14 days, after another 6 weeks, initial value 377): 98 points
- absorption in the GI tract [3]: poorly absorbed
- fecal calprotectin level (Calprotectin (FC); after another 6 weeks, corticosteroid dose reduced to half, rebamipide 100 mg three times daily): 63 µg/g
- fecal calprotectin level (Calprotectin (FC); rebamipide 100 mg three times daily with methylprednisolon 24 mg/day, after 6 weeks, relapse value up to 1939): 228 µg/g
- calprotectin (Calprotectin (FC); after another 6 weeks, rebamipide 100 mg t.i.d., prednisone tapered from 30 mg/day by 10 mg every 2 weeks): 110 µg/g
- calprotectin (Calprotectin (FC); rebamipide 200 mg t.i.d. add-on to prednisone 40 mg/day, after 6 weeks, relapse value 2215): 356 µg/g
- calprotectin level (Calprotectin (FC); Example 3, rebamipide 100 mg three times daily with prednisone 50 mg/day, 25 mg after 14 days, after another 6 weeks, initial value up to 1051): 122 µg/g
- effect on calprotectin levels (Calprotectin (FC); [4]): normalize calprotectin levels
- disease activity on rebamipide only after corticosteroid withdrawal ([1]; Example 1, patient continued only rebamipide): No worsening in disease activity
- disease activity on rebamipide only after prednisone discontinuation ([1]; Example 2, patient continued only rebamipide 100 mg t.i.d.): No worsening in disease activity
- clinical symptoms ([1]; Example 3, after 14 days of rebamipide 100 mg three times daily with prednisone 50 mg/day): alleviation of the clinical symptoms
- disease activity on rebamipide only after prednisone withdrawal ([1]; Example 3, patient continued only rebamipide): No worsening in disease activity
- maintenance of remission ([1]; rebamipide alone, long-term): able to maintain remission
- tolerability of long-term therapy ([1]; rebamipide alone, long-term): well tolerated
- remission in patients who exhausted standard treatment options [1, 4]: induce remission

Molecule: C[C@]12C=CC(=O)C=C1CC[C@@H]1[C@@H]2C(=O)C[C@@]2(C)[C@H]1CC[C@]2(O)C(=O)CO [prednisone]
- treatment outcome of corticosteroid alone after relapse ([1]; Example 2, prednisone 40 mg/day before rebamipide): not able to reach remission

Molecule: adalimumab
- adverse reaction ([1]; Example 1): immunological response had developed

Molecule: infliximab: monoclonal antibody against TNFα
- adverse reaction ([1]; Example 1): immunological response had developed

Molecule: C[C@H]1C[C@@H]2[C@H]([C@@H](O)C[C@@]3(C)[C@H]2CC[C@]3(O)C(=O)CO)[C@@]2(C)C=CC(=O)C=C12 [methylprednisolon]
- treatment outcome of corticosteroid alone after relapse ([1]; Example 1, methylprednisolon 24 mg/day before rebamipide): without success

Molecule: Cn1cnc([N+](=O)[O-])c1Sc1ncnc2nc[nH]c12 [azathioprine]
- adverse reaction leading to discontinuation ([1]; Example 3, discontinued after two weeks): acute pancreatitis
